In patent US7524851B2 (Robert Bosch Gesellschaft fur Medizinische Forschung (RBMF), priority 2003, dated 2009):
Where “and” joins values, the source holds several entries; their conditions need not be identical. Identical values can stand only once. Like-named read-outs stand apart in the source and are kept apart here.

Tests used:
Ras = Ras activation assay (GTP-bound Ras, Raf RBD pull-down); format: cell-based, human; settings: primary T cells
Method: Cell lysates were incubated with 10 μg/ml PAK-1 agarose (Rac assays) or 10 μg/mg Raf RBD agarose (Ras assay) for 60 minutes (Rac assays) or 30 minutes (Ras assays) at 4° C. Agarose beads were collected by centrifugation followed by denaturation, boiling of the samples, and SDS-PAGE analysis.

caspase-9 = experiment: Fluorometric protease assay, caspase-9 activity in T lymphocytes; format: cell-based, human; settings: CD3/CD28/rIL-2 stimulated T cells, 5 days
Method: (§1) Caspase-3 proteolytic activity was determined at day 5 by the caspase-3/CPP 32 fluorometric protease assay (Bio Source; Worcester, Mass., USA) according to the manufacturer's protocol. Caspase-8 and caspase-9 proteolytic activity were assessed in parallel by the corresponding fluorometric protease assays (Bio Source).

[1] = test system: lamina propria mononuclear cells; experiment: TUNEL assay for apoptotic lamina propria mononuclear cells in IBD patients; format: in vivo, human
From the text: (§2) FIG. 3. […] (a) LPMCs were isolated and stimulated with anti-CD2/CD28 plus IL-2 in the presence or absence of 6-MP for 5 days followed by FACS analysis. […] Data represent mean values±SEM from eight patients with IBD per group. […] Data are representative of 5-13 patients per group. Magnification, ×20 (bar=100 μm) (ce) and ×40 (bar=50 μm) (f-h). (i) Quantification of the percentage of apoptotic, TUNEL-positive LPMCs in patients with IBD receiving 6-MP as compared with untreated control patients. […] Data are mean values±SEM of 5-13 patients per group.

caspase-8 = experiment: Fluorometric protease assay, caspase-8 activity in T lymphocytes; format: cell-based, human; settings: CD3/CD28/rIL-2 stimulated T cells, 5 days; on average
Method: as §1

caspase-3 = experiment: Fluorometric protease assay, caspase-3 activity in T lymphocytes; format: cell-based, human; settings: CD3/CD28/rIL-2 stimulated T cells, 5 days
Method: as §1

[2] = test system: peripheral blood CD4+ T cells; experiment: Apoptotic blood T cells from IBD patients receiving azathioprine/6-MP; format: in vivo, human; settings: for number of apoptotic blood T cells: treated IBD patients vs untreated patients before therapy, cells stimulated with CD28 in culture, P<0.05
From the text: as §2
Isolation of primary CD4^+ T lymphocytes and lamina propria cells: Human peripheral blood mononuclear cells (PBMCs) from healthy volunteers (25-42 years of age) and patients with Crohn's disease (31-65 years of age) were isolated using Ficoll-Hypaque gradients. PBMCs were further purified using CD4 monoclonal antibodies attached to immunomagnetic beads according to the manufacturer's protocol, followed by treatment with Detachabead (Dynal; Oslo, Norway). In some cases, CD4^+ T cells were further separated by negative selection techniques using CD45RO or CD45RA monoclonal antibodies (PharMingen; Heidelberg, Germany) and immunomagnetic beads (Dynal). […] Lamina propria mononuclear cells (LPMCs) from patients with IBD were isolated from gut specimens using a short-term (5-minute) digestion protocol with collagenase V, hyaluronidase (Sigma-Aldrich; St. Louis, Mo., USA), and DNase (Roche; Mannheim, Germany), as recently described in detail in Holtmann et al., Eur. J. Immunol. 32:3142-3151 (2002). […]
For FACS analysis, apoptotic cells were detected by staining with annexin V and propidium iodide using the Annexin V FITC Apoptosis Detection Kit I (PharMingen) (Atreya et al., Nat. Med. 6:583-588 (2000)). […]

Rac1 = settings: primary T cells upon azathioprine treatment
Crohn's disease = settings: CD patients, long-term azathioprine
Method: The diagnosis of CD was confirmed in all patients by radiographic, endoscopic, and histopathologic parameters. Clinical outcomes such as the Crohn's disease activity index (CDAI), number of flares per year, and demand for anti-TNF antibody (e.g., infliximab) treatment were determined on clinical visits.

bcl-xL mRNA = settings: anti-CD3- plus anti-CD28-activated T lymphocytes
Method: The mRNA of T cells was extracted at the indicated time points using the Tri-reagent (Sigma-Aldrich) according to the manufacturer's protocol. In brief, the cell pellet was lysed in 1 ml of Tri-reagent before addition of 200 μl of chloroform (Sigma-Aldrich; Steinheim, Germany). Each sample was gently mixed before incubation (for 5 minutes at 20° C.) and centrifugation (12,000 g for 15 minutes at 4° C.). The aqueous phase was transferred to a fresh tube, and 0.5 ml of isopropanol (Sigma-Aldrich) was added. Samples were allowed to stand for 5 minutes at room temperature before centrifugation at 12,000 g (for 10 minutes at 4° C.). The supernatants were removed, and the RNA pellet was washed in 75% ethanol.
Gene arrays: mRNA from T lymphocytes was analyzed by the human apoptosis expression array (R&D) as follows. To generate radiolabeled cDNA, 4 μl of human apoptosis-specific primers (R&D) were added to 4 μg of the isolated mRNA, heated in a thermal cycler at 90° C. for 2 minutes, and incubated at 42° C. for 180 minutes in the presence of reverse transcriptase buffer (50 mM Tris-HCl, 8 mM MgCl2, 30 mM KCl, 1 mM DTT), 333 μM dATP, 333 μM dGTP, 333 μM dTTP, 1.67 μM dCTP, 20 U of RNasin, 20 μCi of ^32P-labeled dCTP (Amersham; Freiburg, Germany), and 50 U of AMV reverse transcriptase. […]

[3] = subgroup n=6 (low 6-TGN, low TGTP ratio)
[4] = subgroup n=13 (high 6-TGN and TGDP levels, ratio less than about 0.85)
[5] = subgroup n=13 (high 6-TGN and TGTP levels, ratio greater than about 0.85)
[6] = subgroup n=15 (low 6-TGN, high TGTP ratio)
[7] = subgroup n=21 (low 6-TGN levels)
[8] = subgroup n=26 (high 6-TGN levels)

**Q.** Which “activation of Ras (GTP-bound Ras)” value (Ras) does the source give for `Sc1ncnc2nc[nH]c12` [6-MP, 6-mercaptopurine] here?
**A.** Its value is “fail to modulate”.

**Q.** And the caspase-9 activity (caspase-9)?
**A.** The caspase-9 activity was “marked induction”.

**Q.** What about the “number of apoptotic cells” value ([1]; 6-MP-resistant patients with IBD) of the same compound?
**A.** The value was “no increase”.

**Q.** And the “number of apoptotic lamina propria mononuclear cells” value ([1]; successful 6-MP treatment vs untreated patients with IBD, P<0.01)?
**A.** Its value is “significant increase”.

**Q.** What about the “induction of caspase-8” value (caspase-8) of the same compound?
**A.** The value was “less pronounced”.

**Q.** What about the caspase-3 activity (caspase-3) of the same compound?
**A.** Its caspase-3 activity is “marked induction”.

**Q.** What about the “further increase in percentage of apoptotic cells on additional 6-MP in vitro” value ([2]; T cells from 6-MP-treated patients) of the same compound?
**A.** Its value is “did not cause a further significant increase”.

**Q.** And the “number of apoptotic blood T cells” value [2]?
**A.** Its value is “significant increase”.

**Q.** With `Cn1cnc([N+](=O)[O-])c1Sc1ncnc2nc[nH]c12` [azathioprine, Azathioprine] as the compound, how does the “6-TG detected in Rac1 pull-downs” value (Rac1) read?
**A.** Its value is “approximately 120 pg of 6-TG per microgram”.

**Q.** And the “activation of Ras (GTP-bound Ras)” value (Ras)?
**A.** Its value is “virtually unaffected”.

**Q.** What about the “CDAI (Crohn's disease activity index)” value (Crohn's disease; [3]) of the same compound?
**A.** Its value is 151 ± 55.

**Q.** What about the “Flares (number of flares per year)” value (Crohn's disease; [3]) of the same compound?
**A.** The value was 1.4 ± 1.3.

**Q.** What about the “INF (infliximab use)” value (Crohn's disease; [3]) of the same compound?
**A.** The value was 1.0 ± 0.6.

**Q.** What about the “Response (clinical response rate)” value (Crohn's disease; [3]) of the same compound?
**A.** Its value is 0.5 ± 0.3.

**Q.** And the “CDAI (Crohn's disease activity index)” value (Crohn's disease; [4])?
**A.** The value was 277 ± 62.

**Q.** And the “Flares (number of flares per year)” value (Crohn's disease; [4])?
**A.** Its value is 2.1 and 2.1 ± 0.9.

**Q.** And the “INF (infliximab use)” value (Crohn's disease; [4])?
**A.** Its value is 1.1 and 1.1 ± 0.5.

**Q.** What about the “Response (clinical response rate)” value (Crohn's disease; [4]) of the same compound?
**A.** The value was 0.15 and 0.15 ± 0.1.

**Q.** What about the “CDAI (Crohn's disease activity index)” value (Crohn's disease; [5]) of the same compound?
**A.** The value was 149 ± 35.

**Q.** And the “INF (infliximab use)” value (Crohn's disease; [5])?
**A.** Its value is 0.36 and 0.36 ± 0.2.

**Q.** What about the “CDAI (Crohn's disease activity index)” value (Crohn's disease; [6]) of the same compound?
**A.** Its value is 189 ± 28.

**Q.** What about the “Flares (number of flares per year)” value (Crohn's disease; [6]) of the same compound?
**A.** Its value is 1.9 ± 1.

**Q.** What about the “INF (infliximab use)” value (Crohn's disease; [6]) of the same compound?
**A.** Its value is 1.1 ± 0.7.

**Q.** And the “Response (clinical response rate)” value (Crohn's disease; [6])?
**A.** The value was 0.1 ± 0.1.

**Q.** And the “CDAI (Crohn's disease activity index)” value (Crohn's disease; [7])?
**A.** Its value is 176 ± 26.

**Q.** What about the “Flares (number of flares per year)” value (Crohn's disease; [7]) of the same compound?
**A.** The value was 2.1 ± 0.9.

**Q.** What about the “INF (infliximab use)” value (Crohn's disease; [7]) of the same compound?
**A.** The value was 1.1 ± 0.5.

**Q.** What about the “Response (clinical response rate)” value (Crohn's disease; [7]) of the same compound?
**A.** The value was 0.16 and 0.16 ± 0.1.

**Q.** And the “CDAI (Crohn's disease activity index)” value (Crohn's disease; [8])?
**A.** Its value is 206 ± 36.

**Q.** What about the “Flares (number of flares per year)” value (Crohn's disease; [8]) of the same compound?
**A.** Its value is 1.1 ± 0.6.

**Q.** What about the “INF (infliximab use)” value (Crohn's disease; [8]) of the same compound?
**A.** The value was 0.7 ± 0.3.

**Q.** What about the “number of apoptotic blood T cells” value [2] of the same compound?
**A.** The value was “significant increase”.

**Q.** And the “bcl-xL mRNA expression” value (bcl-xL mRNA)?
**A.** The value was “strongly suppressed”.

**Q.** And the “mRNA expression of other genes such as IL-2R, TACI, and GAPDH” value (bcl-xL mRNA)?
**A.** Its value is “not affected”.
